Laboratory results reported in PubChem BioAssay (NCI).
“And” between values parts separate entries of the source, which are not always exact repeats. Equal entries are not always repeated.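 Test compounds were applied to cells in 96-well plates for 48 hours at 5 doses. GI50 is the concentration that inhibits growth by half. At the TGI there is no net growth.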

Key:
Assay in all cases: growth of human tumour cells (NCI), 48 h
SF-295 CNS = test system: SF-295 CNS
SR leukemia = test system: SR leukemia
ACHN renal = test system: ACHN renal
A549 NSCLC = test system: A549 NSCLC
OVCAR-5 ovarian = test system: OVCAR-5 ovarian
NCI-H23 lung = test system: NCI-H23 lung
NCI/ADR-RES ovarian = test system: NCI/ADR-RES ovarian
DU-145 prostate = test system: DU-145 prostate
HL-60(TB) leukemia = test system: HL-60(TB) leukemia
UACC-62 melanoma = test system: UACC-62 melanoma
MDA-MB-435 = test system: MDA-MB-435
786-0 renal = test system: 786-0 renal
SN12C renal = test system: SN12C renal
IGROV1 ovarian = test system: IGROV1 ovarian
M14 melanoma = test system: M14 melanoma
SK-OV-3 ovarian = test system: SK-OV-3 ovarian
TK-10 renal = test system: TK-10 renal
SW-620 colon = test system: SW-620 colon
OVCAR-3 ovarian = test system: OVCAR-3 ovarian
MALME-3M melanoma = test system: MALME-3M melanoma
NCI-H226 lung = test system: NCI-H226 lung
MOLT-4 leukemia = test system: MOLT-4 leukemia
K-562 leukemia = test system: K-562 leukemia
U251 CNS = test system: U251 CNS
CAKI-1 renal = test system: CAKI-1 renal
NCI-H522 lung = test system: NCI-H522 lung
OVCAR-4 ovarian = test system: OVCAR-4 ovarian
HT29 colon = test system: HT29 colon
SF-268 CNS = test system: SF-268 CNS

With Cc1cc(C(C#N)c2ccc(Cl)cc2)c(Cl)cc1NC(=O)c1cc(I)cc(I)c1O (stereo not drawn) the GI50 (SF-295 CNS) was 3.22 µM and 10.9 µM, the TGI (SF-295 CNS) was 14.7 µM and 30.1 µM and the GI50 (SR leukemia) was 5.97 µM and 9.04 µM. For the same compound, the TGI (SR leukemia) was 34.5 µM and > 100 µM, the GI50 (ACHN renal) was 15.5 µM and 17.2 µM and the TGI (ACHN renal) was 46.1 µM and 37.1 µM. The GI50 (A549 NSCLC) was 13.6 µM and 21.3 µM, the TGI (A549 NSCLC) was 56.3 µM and 44.5 µM and the GI50 (OVCAR-5 ovarian) was 11 µM and 15.5 µM. For the same compound, the TGI (OVCAR-5 ovarian) was 29.2 µM and 32 µM, the GI50 (NCI-H23 lung) was 6.2 µM and 14.6 µM and the TGI (NCI-H23 lung) was 21 µM and 37.3 µM. The GI50 (NCI/ADR-RES ovarian) was 4.03 µM and 15.7 µM, the TGI (NCI/ADR-RES ovarian) was 28.9 µM and 54.2 µM and the GI50 (DU-145 prostate) was 14.5 µM and 15.2 µM. For the same compound, the TGI (DU-145 prostate) was 28.7 µM and 29.1 µM, the GI50 (HL-60(TB) leukemia) was 4.34 µM and 22.1 µM and the TGI (HL-60(TB) leukemia) was 15.9 µM and 48.9 µM. The GI50 (UACC-62 melanoma) was 2.96 µM and 8.79 µM, the TGI (UACC-62 melanoma) was 11.5 µM and 23.8 µM and the GI50 (MDA-MB-435) was 12 µM and 18.8 µM. The TGI (MDA-MB-435) was 31.6 µM and 42 µM, the GI50 (786-0 renal) was 12.6 µM and 16.6 µM and the TGI (786-0 renal) was 25.1 µM and 34.7 µM. For the same compound, the GI50 (SN12C renal) was 3.57 µM and 15.4 µM, the TGI (SN12C renal) was 35.6 µM and 39.2 µM and the GI50 (IGROV1 ovarian) was 10.5 µM and 16.1 µM. The TGI (IGROV1 ovarian) was 40.9 µM and 36.5 µM, the GI50 (M14 melanoma) was 14.7 µM and 16.3 µM and the TGI (M14 melanoma) was 29.9 µM and 34.2 µM. For the same compound, the GI50 (SK-OV-3 ovarian) was 15.6 µM and 15.8 µM, the TGI (SK-OV-3 ovarian) was 29.2 µM and 29.5 µM and the GI50 (TK-10 renal) was 11.8 µM and 22.4 µM. The TGI (TK-10 renal) was 33.9 µM and 65.4 µM, the GI50 (SW-620 colon) was 6.91 µM and 16.7 µM and the TGI (SW-620 colon) was 22.6 µM and 34.6 µM. The GI50 (OVCAR-3 ovarian) was 8.33 µM and 14.2 µM, the TGI (OVCAR-3 ovarian) was 23.5 µM and 28.5 µM and the GI50 (MALME-3M melanoma) was 4.93 µM and 10.4 µM. For the same compound, the TGI (MALME-3M melanoma) was 20.2 µM and 27.5 µM, the GI50 (NCI-H226 lung) was 11.9 µM and the TGI (NCI-H226 lung) was 43.4 µM. For the same compound, the GI50 (MOLT-4 leukemia) was 4.74 µM and 22.6 µM, the TGI (MOLT-4 leukemia) was 19.3 µM and 53.9 µM and the GI50 (K-562 leukemia) was 15.5 µM. The TGI (K-562 leukemia) was 47.5 µM, the GI50 (U251 CNS) was 6.1 µM and 16 µM and the TGI (U251 CNS) was 33.4 µM and 38.2 µM. For the same compound, the GI50 (CAKI-1 renal) was 10.2 µM and 14.3 µM, the TGI (CAKI-1 renal) was 35.1 µM and 40.9 µM and the GI50 (NCI-H522 lung) was 3.48 µM and 17.8 µM. The TGI (NCI-H522 lung) was 10.5 µM and 47.2 µM, the GI50 (OVCAR-4 ovarian) was 16.4 µM and 17.5 µM and the TGI (OVCAR-4 ovarian) was 51.4 µM and 47.9 µM. For the same compound, the GI50 (HT29 colon) was 7.23 µM and 18.6 µM, the TGI (HT29 colon) was 22.6 µM and 40.4 µM and the GI50 (SF-268 CNS) was 7.58 µM and 13.8 µM. For the same compound, the TGI (SF-268 CNS) was 22.2 µM and 31.3 µM.
